The target in one data set is KRAS^G12D/cRAF (Homo sapiens, UniProt P01116, G12D). Description: KRAS G12D/cRAF binding test (Alphalisa). The conditions noted are these: His-tagged KRAS G12D + GMPPNP, GST-tagged cRAF. In a few lines:
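His-tagged KRAS G12D loaded with GMPPNP was incubated with compound (8-point 3-fold series from 5 mM DMSO stock) and then GST-cRAF for 15 min at room temperature. AlphaLISA detection followed after 60 min. IC50 came from a four-parameter fit of signal ratios against the DMSO control.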
Background: Alpha assays give light when donor and acceptor beads are brought close together.

The subject of a further data set is AGS cell. Description: Anti-proliferative 2D CTG assay, AGS cells. In kind it is cell-based. The conditions noted are these: Homo sapiens, 72 h. In a few lines: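 Cells seeded at 1000/well overnight, then treated with 10-point 1:5 dilutions ([…], 0.1% DMSO) for 3 days at 37° C. Viability read by CellTiter-Glo luminescence; % inhibition versus HPE/ZPE controls, IC50 from four-parameter fit.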

Data set [1] can be described thus: Pharmacokinetic experiment in mice. The conditions noted are these: male, ICR, mouse, plasma.
Protocol: (§1) ICR mice male N=3 original source: Shanghai Sippr-Bk Lab Animal Co., Ltd.
(§2) Single oral (PO) administration in ICR mice: The compounds were weighed and added to the solvent of 0.5% CMC+1% Tween 80 respectively, well shaken, and ultrasonicated to get a light yellow suspension. 3 mice were administered orally after fasting overnight. The dose was 10 mg/kg.
(§3) About 90 μL/timepoint blood was collected through the orbital cavity, anticoagulated with sodium heparin, placed on ice after collection, and centrifuged to separate the plasma within 1 hour (centrifugation conditions: 8000 rpm, 6 m 2-8C). The blood collection timepoints were 0, 0.25, 0.5, 1, 2, 4, 6, 8 and 24 h. The samples were stored in a −20° C. refrigerator.
(§4) The plasma sample was 40 μL, 160 μL of ice-cold acetonitrile containing internal standard was added, vortexed for 1 minute, and centrifuged at 18,000 rpm for 10 minutes. The supernatant was transferred to a 96-well plate, and 5 μL was injected into LC-MS/MS for analysis.
The nature of the next data set: in vivo. The conditions noted are these: male, ICR, mouse, po, 10 mg/kg.
The mark [2] stands for this setting: AGS cells, incubated 3 days, CTG, numeric values, read-out: AGS cell IC50.
[3] abbreviates: AGS cells, incubated 3 days, CTG, class symbols, read-out: AGS cell IC50.

Where two headings read alike, the source gives them in different places. Bounds are passed on as bounds.

These results are taken from patent publication US20260176262A1, “KRAS INHIBITORS, PREPARATION METHOD THEREFOR, AND PHARMACEUTICAL USE THEREOF” (ABBISKO THERAPEUTICS CO., LTD., priority 2021, published 2026).

Chain of KRAS^G12D/cRAF (P01116 1-188 isoform P01116-2 G12D): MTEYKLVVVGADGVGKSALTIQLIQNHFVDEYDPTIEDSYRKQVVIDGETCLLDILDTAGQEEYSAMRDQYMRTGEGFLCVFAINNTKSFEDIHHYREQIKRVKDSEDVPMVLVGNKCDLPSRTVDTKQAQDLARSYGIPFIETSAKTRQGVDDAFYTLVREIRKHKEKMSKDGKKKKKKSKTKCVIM
Protocol for in vivo: as §1, §2, §3, §4

Take `C#Cc1c(F)ccc2cc(O)cc(-c3ncc4c(N5C[C@H]6CC[C@@](C=C)(C5)N6)nc(OC[C@@]56CCCN5C[C@H](F)C6)nc4c3F)c12` [Example 57, 5-ethynyl-6-fluoro-4-(8-fluoro-2-(((2R,7aS)-2-fluorotetrahydro-1H-pyrrolizin-7a(5 H)-yl)methoxy)-4-((1R,5R)-1-vinyl-3,8-diazabicyclo[3.2.1]octan-3-yl)pyrido[4,3-d]pyrimidin-7-yl)naphthalen-2-ol]: the 50% inhibitory concentration (IC50) on KRAS^G12D/cRAF (numeric values) turned out to be 15 nM; with AGS cell (setting [2]), 8.1 nM. Moreover, the AUC(0-t) in data set [1] (iv, 2 mg/kg) was determined as 375 ng·h/mL; in data set [1] (po, 10 mg/kg), 1790 ng·h/mL. The half-life in data set [1] (iv, 2 mg/kg) is 5.1 h; in data set [1] (po, 10 mg/kg) it was 4.5 h. In addition, the bioavailability in data set [1] (po, 10 mg/kg) worked out at 95%.

For `[2H]C([2H])([2H])C12CCC(CN(c3nc(OC[C@@]45CCCN4C[C@H](F)C5)nc4c(F)c(-c5cc(O)cc6ccc(F)c(C#C)c56)nc(OC)c34)C1)N2` (stereo partly drawn) [Example 38, 5-ethynyl-6-fluoro-4-(8-fluoro-2-(((2R,7aS)-2-fluorotetrahydro-1H-pyrrolizin-7a(5H)-yl)methoxy)-5-methoxy-4-(1-(methyl-d3)-3,8-diazabicyclo [3.2.1]octan-3-yl)pyrido [4,3-d]pyrimidin-7-yl)naphthalen-2-ol], on KRAS^G12D/cRAF (class symbols), the IC50 is less than 50 nM. Further, the IC50 in the data set with AGS cell (setting [3]) lay within 50 to 500 nM. In data set [1] (po, 10 mg/kg), this molecule had an AUC(0-t) of 115 ng·h/mL and a half-life of 9.2 h.

As for `[2H]C([2H])([2H])OCC12CCC(CN(c3nc(OC[C@@]45CCCN4C[C@H](F)C5)nc4c(F)c(-c5cc(O)cc6ccc(F)c(C#C)c56)ncc34)C1)N2` (stereo partly drawn) [Example 2, 5-ethynyl-6-fluoro-4-(8-fluoro-2-(((2R,7aS)-2-fluorotetrahydro-1H-pyrrolizin-7a(5H)-yl)methoxy)-4-(1-((methoxy-d3)methyl)-3,8-diazabicyclo [3.2.1]octan-3-yl)pyrido[4,3-d]pyrimidin-7-yl)naphthalen-2-ol], the IC50 at KRAS^G12D/cRAF (class symbols) fell in the range of 50 to 500 nM. The IC50 in the data set on AGS cell (setting [3]) is less than 50 nM. In data set [1] (po, 10 mg/kg), this molecule showed an AUC(0-t) of 602 ng·h/mL and a half-life of 8.3 h.

With `[2H]C([2H])([2H])[C@@]12CC[C@@H](CN(c3nc(OC[C@@]45CCCN4C[C@H](F)C5)nc4c(F)c(-c5cc(O)cc6ccc(F)c(C#C)c56)ncc34)C1)N2` [Example 43, 5-ethynyl-6-fluoro-4-(8-fluoro-2-(((2R,7aS)-2-fluorotetrahydro-1H-pyrrolizin-7a(5 H)-yl)methoxy)-4-((1R,5S)-1-(methyl-d3)-3,8-diazabicyclo[3.2.1]octan-3-yl)pyrido[4,3-d]pyrimidin-7-yl)naphthalen-2-ol], on KRAS^G12D/cRAF (numeric values), the IC50 was found to be 4.6 nM. Also, in the data set with AGS cell (setting [2]), the IC50 came to 1.5 nM. In data set [1] (iv, 2 mg/kg), this molecule gave an AUC(0-t) of 214 ng·h/mL and a half-life of 5.4 h. Moreover, in data set [1] (po, 10 mg/kg), the AUC(0-t) amounted to 733 ng·h/mL, the bioavailability worked out at 5.8% and the half-life was 15.7 h.

Take `C#Cc1c(F)ccc2cc(O)cc(-c3ncc4c(N5CC6CCC(C(C)OC)(C5)N6)nc(OC[C@@]56CCCN5C[C@H](F)C6)nc4c3F)c12` (stereo partly drawn) [Example 12, 5-ethynyl-6-fluoro-4-(8-fluoro-2-(((2R,7aS)-2-fluorotetrahydro-1H-pyrrolizin-7a(5H)-yl)methoxy)-4-(1-(1-methoxyethyl)-3,8-diazabicyclo[3.2.1]octan-3-yl)pyrido[4,3-d]pyrimidin-7-yl) naphthalen-2-ol]: the IC50 on KRAS^G12D/cRAF (class symbols) lay in the range of 50 to 500 nM. Further, the IC50 in the data set on AGS cell (setting [3]) is less than 50 nM. In data set [1] (po, 10 mg/kg), this molecule had an AUC(0-t) of 1740 ng·h/mL and a half-life of 7.2 h.

With `[2H]C([2H])([2H])OCC12CCC(CN(c3nc(OC[C@@]45CCCN4C[C@H](F)C5)nc4c(F)c(-c5cc(O)c(F)c6ccc(F)c(C#C)c56)ncc34)C1)N2` (stereo partly drawn) [Example 14, 5-ethynyl-1,6-difluoro-4-(8-fluoro-2-(((2R,7aS)-2-fluorotetrahydro-1H-pyrrolizin-7a(5H)-yl)methoxy)-4-(1-((methoxy-d3)methyl)-3,8-diazabicyclo[3.2.1]octan-3-yl)pyrido[4,3-d]pyrimidin-7-yl)naphthalen-2-ol], the IC50 in the data set with AGS cell (setting [3]) is more than 500 nM. In “in vivo”, the AUC(0-t) amounted to 607 ng·h/mL and the half-life is 5.8 h.

Take `C#Cc1c(F)ccc2cc(O)cc(-c3ncc4c(N5CC6CCC(COCC)(C5)N6)nc(OC[C@@]56CCCN5C[C@H](F)C6)nc4c3F)c12` (stereo partly drawn) [Example 32, 4-(4-(1-(ethoxymethyl)-3,8-diazabicyclo[3.2.1]octan-3-yl)-8-fluoro-2-(((2R,7aS)-2-fluorotetrahydro-1H-pyrrolizin-7a(511)-yl)methoxy)pyrido[4,3-d]pyrimidin-7-yl)-5-ethynyl-6-fluoronaphthalen-2-ol]: the IC50 at KRAS^G12D/cRAF (class symbols) lay within 50 to 500 nM. In the data set with AGS cell (AGS, read-out: AGS cell IC50 (nM)), the IC50 was less than 50 nM. In data set [1] (po, 10 mg/kg), this molecule had an AUC(0-t) of 2200 ng·h/mL and a half-life of 4.6 h.

Consider `C#Cc1c(F)ccc2cc(O)cc(-c3ncc4c(N5CC6CCC(C=C)(C5)N6)nc(OC[C@@]56CCCN5C[C@H](F)C6)nc4c3F)c12` (stereo partly drawn) [Example 5, 5-ethynyl-6-fluoro-4-(8-fluoro-2-(((2R,7aS)-2-fluorotetrahydro-1H-pyrrolizin-7a(5H)-yl)methoxy)-4-(1-vinyl-3,8-diazabicyclo[3.2.1]octan-3-yl)pyrido[4,3-d]pyrimidin-7-yl)naphthalen-2-ol], for which the IC50 at KRAS^G12D/cRAF (numeric values) is 72 nM. Also, the IC50 with AGS cell (setting [2]) is 15 nM. In data set [1] (po, 10 mg/kg), this molecule gave an AUC(0-t) of 489 ng·h/mL and a half-life of 6.3 h.

The IC50 is the concentration needed to halve the response being measured. What is called AUC(0-t) is exposure summed from dosing to a finite time, without extrapolation to infinity. Lower therefore signals low exposure. What is called half-life is the time needed for the level to fall by half in the phase considered. Low values mean rapid decline, high ones slow decline. What is called bioavailability is dose-corrected exposure relative to a reference, in per cent. The low end stands for little systemic uptake, the high end for much systemic uptake.
